Where two headings read alike, the source gives them in different places. Blank lines part the entries; values can stand above or below the compound they belong to.
How the values were obtained:
Assay in all cases: Competitive cysteine profiling, probe competition (Table 2B)
Assay type in all cases: binding
[1] = biological target: T1, Q92624 (Homo sapiens, UniProt Q92624)
T1 construct: Cells were resuspended in cold PBS on ice and sonicated with a probe sonicator to achieve lysis; endogenous in cells
T1 sequence (Q92624 1-585): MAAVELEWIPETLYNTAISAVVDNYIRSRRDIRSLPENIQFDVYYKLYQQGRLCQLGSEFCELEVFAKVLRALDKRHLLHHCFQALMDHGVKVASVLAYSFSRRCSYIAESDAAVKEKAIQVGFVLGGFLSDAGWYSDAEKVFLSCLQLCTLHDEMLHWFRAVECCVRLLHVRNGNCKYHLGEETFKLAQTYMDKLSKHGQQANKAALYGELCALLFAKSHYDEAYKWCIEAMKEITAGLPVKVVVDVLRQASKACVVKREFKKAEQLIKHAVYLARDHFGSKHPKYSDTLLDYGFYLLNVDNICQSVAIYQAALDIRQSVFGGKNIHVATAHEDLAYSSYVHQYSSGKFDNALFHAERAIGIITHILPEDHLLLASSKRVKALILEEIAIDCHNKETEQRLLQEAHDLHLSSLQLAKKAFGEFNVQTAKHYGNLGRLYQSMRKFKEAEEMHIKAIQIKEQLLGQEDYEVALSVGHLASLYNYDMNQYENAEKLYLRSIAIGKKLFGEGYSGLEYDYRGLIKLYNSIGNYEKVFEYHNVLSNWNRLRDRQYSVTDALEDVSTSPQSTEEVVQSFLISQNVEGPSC
Source text: (§1) The following 96-well sample prep protocol was used for sample preparation.

[2] = biological target: T2, Q9H765 (Homo sapiens, UniProt Q9H765)
T2 construct: 200 μL of lysate containing 5 mg/ml proteome was treated with 2 μL of 100× compound stock; endogenous in cells
T2 sequence (Q9H765 1-288): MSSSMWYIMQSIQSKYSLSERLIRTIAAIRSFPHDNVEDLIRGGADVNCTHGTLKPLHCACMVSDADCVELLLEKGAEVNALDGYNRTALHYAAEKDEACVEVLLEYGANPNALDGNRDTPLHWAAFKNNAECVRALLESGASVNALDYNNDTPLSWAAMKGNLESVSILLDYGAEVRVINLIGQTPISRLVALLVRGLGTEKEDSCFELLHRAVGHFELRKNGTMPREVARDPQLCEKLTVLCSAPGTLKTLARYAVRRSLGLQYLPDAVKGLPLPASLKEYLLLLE
Source text: as §1

[3] = biological target: T3, Q9NYG5 (Homo sapiens, UniProt Q9NYG5)
T3 construct: Cells were resuspended in cold PBS on ice and sonicated with a probe sonicator to achieve lysis; endogenous in cells
Source text: as §1

[4] = biological target: T4, Q9UJX5 (Homo sapiens, UniProt Q9UJX5)
T4 construct: Cells were resuspended in cold PBS on ice and sonicated with a probe sonicator to achieve lysis; endogenous in cells
Source text: as §1

[5] = biological target: T5, Q96C12 (Homo sapiens, UniProt Q96C12)
T5 construct: Cells were resuspended in cold PBS on ice and sonicated with a probe sonicator to achieve lysis; endogenous in cells
T5 sequence (Q96C12 1-935): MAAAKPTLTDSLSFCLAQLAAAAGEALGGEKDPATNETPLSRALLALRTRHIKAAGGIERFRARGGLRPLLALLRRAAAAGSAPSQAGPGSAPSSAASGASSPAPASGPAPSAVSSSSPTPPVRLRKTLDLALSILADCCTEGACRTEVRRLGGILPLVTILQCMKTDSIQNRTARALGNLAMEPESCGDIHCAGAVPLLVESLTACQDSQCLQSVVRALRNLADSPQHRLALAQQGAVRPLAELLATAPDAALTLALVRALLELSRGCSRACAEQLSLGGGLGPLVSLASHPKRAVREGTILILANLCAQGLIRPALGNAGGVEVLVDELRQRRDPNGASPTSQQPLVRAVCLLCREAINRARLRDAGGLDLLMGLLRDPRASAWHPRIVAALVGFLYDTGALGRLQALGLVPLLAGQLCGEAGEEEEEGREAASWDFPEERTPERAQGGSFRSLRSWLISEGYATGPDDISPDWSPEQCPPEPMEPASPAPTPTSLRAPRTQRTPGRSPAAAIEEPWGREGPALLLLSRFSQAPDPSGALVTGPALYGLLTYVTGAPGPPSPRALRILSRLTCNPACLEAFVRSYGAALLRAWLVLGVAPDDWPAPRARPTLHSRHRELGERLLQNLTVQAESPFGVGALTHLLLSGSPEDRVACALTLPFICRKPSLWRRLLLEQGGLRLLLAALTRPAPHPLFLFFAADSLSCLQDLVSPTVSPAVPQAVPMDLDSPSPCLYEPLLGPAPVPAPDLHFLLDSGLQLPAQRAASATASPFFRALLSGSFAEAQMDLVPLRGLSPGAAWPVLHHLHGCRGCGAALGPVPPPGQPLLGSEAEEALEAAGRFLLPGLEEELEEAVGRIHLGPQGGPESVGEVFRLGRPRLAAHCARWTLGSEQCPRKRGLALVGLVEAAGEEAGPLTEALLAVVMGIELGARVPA
Source text: as §1

[6] = biological target: T6, O95376 (Homo sapiens, UniProt O95376); conditions: 500 uM
T6 construct: Cells were resuspended in cold PBS on ice and sonicated with a probe sonicator to achieve lysis; endogenous in cells
T6 sequence (O95376 1-493): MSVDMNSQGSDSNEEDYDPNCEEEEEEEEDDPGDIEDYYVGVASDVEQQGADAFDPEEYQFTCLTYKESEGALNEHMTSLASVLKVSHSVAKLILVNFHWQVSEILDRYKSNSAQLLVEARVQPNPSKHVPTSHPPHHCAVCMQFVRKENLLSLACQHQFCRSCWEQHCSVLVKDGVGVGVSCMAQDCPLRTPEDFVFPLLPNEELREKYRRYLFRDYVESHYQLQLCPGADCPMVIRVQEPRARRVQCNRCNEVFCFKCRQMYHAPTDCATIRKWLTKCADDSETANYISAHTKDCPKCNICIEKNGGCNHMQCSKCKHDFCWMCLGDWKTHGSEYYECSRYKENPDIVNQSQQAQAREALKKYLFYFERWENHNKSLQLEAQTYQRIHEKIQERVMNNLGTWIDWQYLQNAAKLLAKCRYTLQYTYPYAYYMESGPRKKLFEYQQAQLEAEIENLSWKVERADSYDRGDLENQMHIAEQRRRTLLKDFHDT
Source text: as §1

[7] = biological target: T7, Q9UKV5 (Homo sapiens, UniProt Q9UKV5)
T7 construct: Cells were resuspended in cold PBS on ice and sonicated with a probe sonicator to achieve lysis; endogenous in cells
Source text: as §1

[8] = 100 uM, read-out: KB05_100 uM_percent_inhibition
[9] = 500 uM, read-out: KB05_500 uM_percent_inhibition
[10] = read-out: KB05_100 uM_percent_inhibition
[11] = 500 uM, read-out: KB02_500 uM_percent_inhibition
[12] = read-out: KB02_100 uM_percent_inhibition

T7 sequence (Q9UKV5 whole entry): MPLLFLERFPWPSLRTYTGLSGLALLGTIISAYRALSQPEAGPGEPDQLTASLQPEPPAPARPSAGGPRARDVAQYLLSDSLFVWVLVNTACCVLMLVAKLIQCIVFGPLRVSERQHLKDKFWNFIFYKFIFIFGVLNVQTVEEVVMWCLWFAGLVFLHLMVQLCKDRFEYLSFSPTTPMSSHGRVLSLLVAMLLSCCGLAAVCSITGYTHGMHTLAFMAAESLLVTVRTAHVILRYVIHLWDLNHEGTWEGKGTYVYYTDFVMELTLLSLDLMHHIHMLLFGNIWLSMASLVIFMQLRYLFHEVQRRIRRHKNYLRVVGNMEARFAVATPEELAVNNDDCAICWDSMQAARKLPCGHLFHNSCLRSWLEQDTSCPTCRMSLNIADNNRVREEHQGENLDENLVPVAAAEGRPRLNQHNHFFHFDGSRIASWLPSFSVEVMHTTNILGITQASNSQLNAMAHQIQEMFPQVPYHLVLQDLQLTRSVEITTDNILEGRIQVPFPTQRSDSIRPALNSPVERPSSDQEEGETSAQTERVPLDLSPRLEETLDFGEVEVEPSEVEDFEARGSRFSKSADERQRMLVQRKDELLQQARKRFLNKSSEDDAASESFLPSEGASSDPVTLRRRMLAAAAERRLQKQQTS
T4 sequence (Q9UJX5 whole entry): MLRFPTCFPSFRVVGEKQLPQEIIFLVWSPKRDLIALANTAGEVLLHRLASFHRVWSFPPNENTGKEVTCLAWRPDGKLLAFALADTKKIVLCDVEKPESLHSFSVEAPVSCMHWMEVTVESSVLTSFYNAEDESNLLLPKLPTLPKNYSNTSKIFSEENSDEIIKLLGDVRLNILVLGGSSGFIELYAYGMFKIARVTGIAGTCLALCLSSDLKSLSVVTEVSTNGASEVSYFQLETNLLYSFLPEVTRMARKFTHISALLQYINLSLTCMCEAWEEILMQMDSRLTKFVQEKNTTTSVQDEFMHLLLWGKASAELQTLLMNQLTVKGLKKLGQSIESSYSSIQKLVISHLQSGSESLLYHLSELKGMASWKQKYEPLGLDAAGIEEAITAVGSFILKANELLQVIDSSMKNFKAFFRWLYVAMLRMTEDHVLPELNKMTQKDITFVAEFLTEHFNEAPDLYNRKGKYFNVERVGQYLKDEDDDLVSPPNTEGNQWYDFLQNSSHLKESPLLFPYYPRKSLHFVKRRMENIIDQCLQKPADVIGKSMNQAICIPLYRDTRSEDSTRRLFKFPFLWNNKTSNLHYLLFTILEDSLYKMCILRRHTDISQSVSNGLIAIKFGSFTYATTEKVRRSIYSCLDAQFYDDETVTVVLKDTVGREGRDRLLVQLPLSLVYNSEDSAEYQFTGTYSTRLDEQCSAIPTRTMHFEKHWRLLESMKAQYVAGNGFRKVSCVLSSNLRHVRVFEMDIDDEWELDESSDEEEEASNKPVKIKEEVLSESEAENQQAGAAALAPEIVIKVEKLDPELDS
T3 sequence (Q9NYG5 whole entry): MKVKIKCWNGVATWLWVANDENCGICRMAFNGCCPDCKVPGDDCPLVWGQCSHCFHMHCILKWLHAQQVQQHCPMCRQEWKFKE

inhibition at 100 µM [1, 8]: 34%
inhibition at 500 µM [2, 9]: 37%
inhibition at 100 µM [3, 10]: 27%
inhibition at 100 µM [4, 8]: 6%
inhibition at 500 µM [4, 9]: 20%
inhibition at 100 µM [5, 10]: 23%
KB05_500 uM_percent_inhibition [6]: 79%
inhibition at 100 µM [7, 10]: 5%
inhibition at 500 µM [7, 9]: 18%
SMILES: C=CC(=O)N(c1ccccc1)c1ccc(Br)cc1 [KB05]

SMILES: O=C(CCl)Nc1cc(C(F)(F)F)cc(C(F)(F)F)c1 [KBO3]
KB03_100 uM_percent_inhibition ([1]; 100 uM): 56%
KB03_500 uM_percent_inhibition ([2]; 500 uM): 40%
KB03_100 uM_percent_inhibition ([3]; 100 uM): 51%
KB03_500 uM_percent_inhibition ([4]; 500 uM): 29%
KB03_100 uM_percent_inhibition ([5]; 100 uM): 40%
KB03_500 uM_percent_inhibition [6]: 100%
KB03_500 uM_percent_inhibition ([7]; 500 uM): 48%

SMILES: COc1ccc2c(c1)CCCN2C(=O)CCl [KB02]
inhibition at 500 µM [1, 11]: 100%
inhibition at 100 µM ([2]; 100 uM, read-out: KB02_100 uM_percent_inhibition): 19%
inhibition at 500 µM [2, 11]: 54%
inhibition at 100 µM [3, 12]: 41%
inhibition at 500 µM [4, 11]: 7%
inhibition at 100 µM [5, 12]: 62%
KB02_500 uM_percent_inhibition [6]: 89%
inhibition at 100 µM [7, 12]: 4%
inhibition at 500 µM [7, 11]: 19%

— patent US20200239530A1, “COMPOUNDS AND METHODS OF MODULATING PROTEIN DEGRADATION” (Vividion Therapeutics, Inc., priority 2017, published 2020)
